Data: patent US20120021979A1 (Vanderbilt University, priority 2010, published 2012)

Experiments:
GLP-1 receptor = target: T1, GLP-1 receptor (Rattus norvegicus, UniProt P32301); assay: locomotor activity with or without AMPH; format: in vivo
T1 construct: from tissue; host or cells: whole animal (in vivo, i.p. dosing)
T1 sequence (P32301 22-463): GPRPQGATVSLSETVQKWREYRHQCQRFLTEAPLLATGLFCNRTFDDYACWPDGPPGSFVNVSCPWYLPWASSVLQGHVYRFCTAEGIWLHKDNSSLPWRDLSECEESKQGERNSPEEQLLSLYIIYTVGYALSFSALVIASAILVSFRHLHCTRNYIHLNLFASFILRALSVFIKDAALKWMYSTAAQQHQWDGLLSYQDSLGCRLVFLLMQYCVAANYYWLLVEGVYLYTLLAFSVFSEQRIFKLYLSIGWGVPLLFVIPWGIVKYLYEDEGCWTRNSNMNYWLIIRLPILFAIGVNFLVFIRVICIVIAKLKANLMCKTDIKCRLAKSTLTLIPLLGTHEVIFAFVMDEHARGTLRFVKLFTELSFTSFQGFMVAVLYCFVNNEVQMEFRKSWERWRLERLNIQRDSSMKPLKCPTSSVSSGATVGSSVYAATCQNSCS

Na+/K+ ATPase = assay: slice based biotinylation, Na+/K+ ATPase surface expression in striatal slices; format: cell-based; conditions: 100 nM, 20 min, rat striatal slices, vs vehicle
Description: In addition, the absence of tyrosine hydroxylase (TH, a cytosolic protein found in DAT terminals) from the biotinylated surface fraction serves a control for the integrity of our slice preparation and specificity of the surface signal.

DAT [1] = assay: radiolabeled DA [3H-DA] uptake in striatal slices; format: cell-based; conditions: 100 nM for 10 min, 3H-DA 10 min, vs vehicle
Protocol: Slices were exposed to ^3H-DA for 10 min and then washed to remove excess DA at 4° C. to stop uptake. Slices were homogenized and ^3H-DA quantified by a scintillation counter.

DAT [2] = assay: chronoamperometry of AMPH-induced DA efflux in striatal slices; format: cell-based; conditions: pretreatment 100 nM for 20 min, AMPH 10 μM
Description: Chronoamperometry was used to evaluate AMPH-induced DA efflux in striatal slices.

## exendin-4 [EX4]
GLP-1 receptor; 30 μg/kg i.p. 90 min prior to AMPH 2.78 mg/Kg i.p.
  AMPH-induced locomotor activity: significantly decreased
GLP-1 receptor; 30 μg/kg i.p., absence of AMPH
  basal locomotion: significantly decreased

## Glucagon-like peptide-1 [GLP-1]
Na+/K+ ATPase
  surface expression of the Na+/K+ ATPase: did not affect
DAT [1]
  DA uptake (3H-DA): significantly increased
DAT [2]
  AMPH-induced increase in extracellular DA: significantly potentiates
